Measurements from the kinase profiling compilation of Christmann-Franck et al. (2016).

How the values were obtained:
Assay in all cases: KINOMEscan competition binding
Details in all cases: compound 10.0 µM
[1] = biological target: RIPK2 (human) (UniProt O43353)
[2] = biological target: MAP3K1 (human) (UniProt Q13233)
[3] = biological target: PAK4 (human) (UniProt O96013)
[4] = biological target: PLK4 (human) (UniProt O00444)
[5] = biological target: STK17B (human) (UniProt O94768)
[6] = biological target: PAK6 (human) (UniProt Q9NQU5)
[7] = test system: KIT (human), P10721 [D816V]
[8] = biological target: IGF1R (human) (UniProt P08069)
[9] = biological target: MLTK (human) (UniProt Q9NYL2)
[10] = biological target: YSK4 (human) (UniProt Q56UN5)
[11] = biological target: STK4 (human) (UniProt Q13043)
[12] = biological target: FER (human) (UniProt P16591)
[13] = biological target: PIK3CB (human) (UniProt P42338)
[14] = biological target: DCLK1 (human) (UniProt O15075)
[15] = biological target: RAF1 (human) (UniProt P04049)
[16] = test system: PIK3CA (human), P42336 [E545A]
[17] = biological target: NEK7 (human) (UniProt Q8TDX7)
[18] = biological target: CDK8 (human) (UniProt P49336)
[19] = biological target: TXK (human) (UniProt P42681)
[20] = biological target: DMPK (human) (UniProt Q09013)
[21] = biological target: EPHA4 (human) (UniProt P54764)
[22] = biological target: MAP4K1 (human) (UniProt Q92918)
[23] = biological target: CASK (human) (UniProt O14936)
[24] = biological target: MAP2K6 (human) (UniProt P52564)
[25] = biological target: SIK3 (human) (UniProt Q9Y2K2)
[26] = biological target: RPS6KA4 KD1 (human) (UniProt O75676)
[27] = biological target: EPHA6 (human) (UniProt Q9UF33)
[28] = biological target: ACVR1 (human) (UniProt Q04771)
[29] = biological target: ACVR2B (human) (UniProt Q13705)
[30] = biological target: PIK3C2B (human) (UniProt O00750)
[31] = test system: PIK3CA (human), P42336 [H1047Y]
[32] = biological target: FGFR1 (human) (UniProt P11362)
[33] = test system: PIK3CA (human), P42336 [Q546K]
[34] = biological target: STK24 (human) (UniProt Q9Y6E0)
[35] = biological target: MARK3 (human) (UniProt P27448)
[36] = biological target: TYRO3 (human) (UniProt Q06418)
[37] = biological target: JAK2 JH1 catalytic (human) (UniProt O60674)
[38] = biological target: RIOK2 (human) (UniProt Q9BVS4)
[39] = biological target: HIPK2 (human) (UniProt Q9H2X6)

MLTK (human), sequence (Q9NYL2 whole entry, looked up): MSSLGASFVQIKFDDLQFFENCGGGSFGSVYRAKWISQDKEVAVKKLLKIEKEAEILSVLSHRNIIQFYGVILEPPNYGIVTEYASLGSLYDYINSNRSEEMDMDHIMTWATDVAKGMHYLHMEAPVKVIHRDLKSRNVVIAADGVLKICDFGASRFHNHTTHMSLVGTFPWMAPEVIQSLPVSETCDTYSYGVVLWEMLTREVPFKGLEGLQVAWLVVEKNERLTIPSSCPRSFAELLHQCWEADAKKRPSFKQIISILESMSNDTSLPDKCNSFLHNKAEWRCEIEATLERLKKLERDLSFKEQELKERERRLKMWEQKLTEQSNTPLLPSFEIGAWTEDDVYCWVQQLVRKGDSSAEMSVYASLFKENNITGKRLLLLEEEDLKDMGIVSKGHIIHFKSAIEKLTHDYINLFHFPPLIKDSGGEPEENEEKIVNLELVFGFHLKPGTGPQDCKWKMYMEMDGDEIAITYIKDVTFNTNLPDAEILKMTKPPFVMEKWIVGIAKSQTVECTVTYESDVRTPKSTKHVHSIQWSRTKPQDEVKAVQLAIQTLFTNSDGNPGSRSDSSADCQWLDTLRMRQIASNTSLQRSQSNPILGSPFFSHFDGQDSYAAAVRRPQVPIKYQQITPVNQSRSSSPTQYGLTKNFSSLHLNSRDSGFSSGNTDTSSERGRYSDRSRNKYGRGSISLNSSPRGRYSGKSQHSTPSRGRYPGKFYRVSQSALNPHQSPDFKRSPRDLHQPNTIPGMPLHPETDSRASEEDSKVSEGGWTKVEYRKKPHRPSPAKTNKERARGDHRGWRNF
STK24 (human), sequence (Q9Y6E0 whole entry, looked up): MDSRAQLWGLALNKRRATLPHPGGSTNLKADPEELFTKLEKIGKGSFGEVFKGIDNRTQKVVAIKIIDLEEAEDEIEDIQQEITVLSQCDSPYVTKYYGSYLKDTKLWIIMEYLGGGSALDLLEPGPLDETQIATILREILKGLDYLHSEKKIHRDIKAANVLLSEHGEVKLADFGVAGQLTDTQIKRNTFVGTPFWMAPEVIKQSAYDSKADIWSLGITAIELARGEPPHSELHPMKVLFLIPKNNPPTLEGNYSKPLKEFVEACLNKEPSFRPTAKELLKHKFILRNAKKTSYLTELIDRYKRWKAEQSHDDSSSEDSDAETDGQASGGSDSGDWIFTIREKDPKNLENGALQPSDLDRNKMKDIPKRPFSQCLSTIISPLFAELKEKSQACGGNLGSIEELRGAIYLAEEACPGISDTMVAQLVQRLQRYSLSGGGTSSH
PIK3CA (human), P42336 [Q546K], sequence (P42336 whole entry Q546K, looked up): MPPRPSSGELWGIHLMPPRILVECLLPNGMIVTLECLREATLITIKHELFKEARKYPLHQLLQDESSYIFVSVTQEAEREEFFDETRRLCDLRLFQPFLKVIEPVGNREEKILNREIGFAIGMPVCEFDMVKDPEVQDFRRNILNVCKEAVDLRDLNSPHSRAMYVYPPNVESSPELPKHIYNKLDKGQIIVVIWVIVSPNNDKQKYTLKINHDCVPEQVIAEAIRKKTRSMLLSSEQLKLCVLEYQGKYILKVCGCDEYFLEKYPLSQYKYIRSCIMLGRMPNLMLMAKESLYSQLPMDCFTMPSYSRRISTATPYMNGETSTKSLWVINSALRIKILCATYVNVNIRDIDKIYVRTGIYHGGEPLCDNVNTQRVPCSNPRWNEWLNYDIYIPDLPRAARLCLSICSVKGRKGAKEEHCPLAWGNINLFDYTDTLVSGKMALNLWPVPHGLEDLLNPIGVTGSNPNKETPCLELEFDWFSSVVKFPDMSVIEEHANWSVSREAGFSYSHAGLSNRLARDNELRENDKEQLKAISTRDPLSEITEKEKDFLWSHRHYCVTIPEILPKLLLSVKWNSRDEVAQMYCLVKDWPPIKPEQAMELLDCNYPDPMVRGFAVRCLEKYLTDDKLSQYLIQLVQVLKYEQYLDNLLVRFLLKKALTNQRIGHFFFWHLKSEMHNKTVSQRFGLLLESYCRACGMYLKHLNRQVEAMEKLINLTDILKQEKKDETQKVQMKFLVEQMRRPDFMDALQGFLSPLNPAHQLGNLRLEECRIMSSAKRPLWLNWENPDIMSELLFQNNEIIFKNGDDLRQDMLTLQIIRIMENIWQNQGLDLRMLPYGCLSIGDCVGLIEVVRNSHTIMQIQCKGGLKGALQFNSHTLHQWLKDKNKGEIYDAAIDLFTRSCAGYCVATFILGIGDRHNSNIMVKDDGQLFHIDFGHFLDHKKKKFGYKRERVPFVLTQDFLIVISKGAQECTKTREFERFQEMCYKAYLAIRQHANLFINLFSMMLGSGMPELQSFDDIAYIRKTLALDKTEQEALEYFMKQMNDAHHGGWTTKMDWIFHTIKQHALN
JAK2 JH1 catalytic (human), sequence (O60674 whole entry, looked up): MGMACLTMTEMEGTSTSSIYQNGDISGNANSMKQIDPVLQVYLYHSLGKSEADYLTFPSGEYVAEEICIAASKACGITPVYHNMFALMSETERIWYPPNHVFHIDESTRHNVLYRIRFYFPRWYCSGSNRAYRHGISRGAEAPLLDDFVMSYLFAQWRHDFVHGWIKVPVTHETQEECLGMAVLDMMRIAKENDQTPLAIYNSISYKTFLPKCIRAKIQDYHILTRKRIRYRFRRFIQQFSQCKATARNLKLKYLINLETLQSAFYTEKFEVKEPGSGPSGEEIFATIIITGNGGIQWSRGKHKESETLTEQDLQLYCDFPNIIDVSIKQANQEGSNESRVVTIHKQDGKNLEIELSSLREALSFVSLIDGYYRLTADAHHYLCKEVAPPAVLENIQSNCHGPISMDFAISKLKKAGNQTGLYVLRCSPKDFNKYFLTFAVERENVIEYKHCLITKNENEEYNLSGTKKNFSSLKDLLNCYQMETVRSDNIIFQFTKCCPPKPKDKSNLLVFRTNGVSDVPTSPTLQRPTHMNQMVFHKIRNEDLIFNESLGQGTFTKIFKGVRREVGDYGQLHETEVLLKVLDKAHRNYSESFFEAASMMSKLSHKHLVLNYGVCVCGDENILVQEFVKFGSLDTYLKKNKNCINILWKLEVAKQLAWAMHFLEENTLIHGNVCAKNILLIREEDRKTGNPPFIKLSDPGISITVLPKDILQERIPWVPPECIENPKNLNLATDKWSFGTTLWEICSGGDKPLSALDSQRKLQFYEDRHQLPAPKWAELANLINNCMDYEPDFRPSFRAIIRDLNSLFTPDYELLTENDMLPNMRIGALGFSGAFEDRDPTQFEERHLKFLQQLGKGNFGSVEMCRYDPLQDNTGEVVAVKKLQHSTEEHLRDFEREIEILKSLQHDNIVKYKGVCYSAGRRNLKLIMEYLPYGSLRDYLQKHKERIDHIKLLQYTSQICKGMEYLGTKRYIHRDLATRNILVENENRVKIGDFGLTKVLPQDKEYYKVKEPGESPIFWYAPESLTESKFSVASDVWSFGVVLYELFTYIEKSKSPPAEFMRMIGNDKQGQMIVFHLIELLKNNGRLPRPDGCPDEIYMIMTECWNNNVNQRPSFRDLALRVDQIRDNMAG
YSK4 (human), sequence (Q56UN5 whole entry, looked up): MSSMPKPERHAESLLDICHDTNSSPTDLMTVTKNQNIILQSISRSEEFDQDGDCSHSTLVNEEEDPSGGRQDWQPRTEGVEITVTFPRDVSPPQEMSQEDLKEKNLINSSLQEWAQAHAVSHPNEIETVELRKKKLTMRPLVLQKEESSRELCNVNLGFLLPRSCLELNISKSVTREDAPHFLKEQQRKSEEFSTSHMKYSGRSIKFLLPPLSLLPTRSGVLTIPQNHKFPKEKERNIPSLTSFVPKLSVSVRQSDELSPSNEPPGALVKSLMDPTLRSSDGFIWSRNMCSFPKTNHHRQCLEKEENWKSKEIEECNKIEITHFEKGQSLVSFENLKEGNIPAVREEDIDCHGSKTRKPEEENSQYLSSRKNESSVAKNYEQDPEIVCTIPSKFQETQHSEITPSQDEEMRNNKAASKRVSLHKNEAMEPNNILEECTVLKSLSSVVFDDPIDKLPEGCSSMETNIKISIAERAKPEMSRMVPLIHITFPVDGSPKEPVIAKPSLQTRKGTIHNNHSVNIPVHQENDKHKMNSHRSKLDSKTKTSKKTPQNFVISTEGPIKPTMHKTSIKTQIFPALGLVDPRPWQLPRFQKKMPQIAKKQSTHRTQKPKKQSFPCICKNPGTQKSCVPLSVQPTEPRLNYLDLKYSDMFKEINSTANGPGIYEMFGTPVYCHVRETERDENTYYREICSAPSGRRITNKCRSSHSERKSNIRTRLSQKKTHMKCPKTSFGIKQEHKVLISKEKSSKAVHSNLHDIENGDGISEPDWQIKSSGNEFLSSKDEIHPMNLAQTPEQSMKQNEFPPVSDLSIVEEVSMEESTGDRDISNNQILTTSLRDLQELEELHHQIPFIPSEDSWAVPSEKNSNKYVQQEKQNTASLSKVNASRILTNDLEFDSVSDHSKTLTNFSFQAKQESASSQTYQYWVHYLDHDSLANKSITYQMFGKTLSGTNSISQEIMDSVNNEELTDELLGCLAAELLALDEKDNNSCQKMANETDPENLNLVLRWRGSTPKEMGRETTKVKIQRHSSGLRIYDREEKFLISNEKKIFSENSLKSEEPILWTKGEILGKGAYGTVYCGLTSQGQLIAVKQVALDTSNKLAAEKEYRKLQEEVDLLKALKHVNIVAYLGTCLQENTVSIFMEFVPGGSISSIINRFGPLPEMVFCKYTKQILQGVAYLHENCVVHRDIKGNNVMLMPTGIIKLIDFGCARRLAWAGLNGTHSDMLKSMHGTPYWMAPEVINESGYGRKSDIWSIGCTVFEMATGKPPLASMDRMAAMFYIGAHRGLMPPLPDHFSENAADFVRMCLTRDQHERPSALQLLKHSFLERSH
PIK3CA (human), P42336 [H1047Y], sequence (P42336 whole entry H1047Y, looked up): as the sequence (P42336 whole entry Q546K, looked up) above, with K546Q, H1047Y counted along it
PIK3CA (human), P42336 [E545A], sequence (P42336 whole entry E545A, looked up): as the sequence (P42336 whole entry Q546K, looked up) above, with E545A, K546Q counted along it

SMILES | kinase still bound, per cent of control [1] [%] | kinase still bound, per cent of control [2] [%] | kinase still bound, per cent of control [3] [%] | kinase still bound, per cent of control [4] [%] | kinase still bound, per cent of control [5] [%] | kinase still bound, per cent of control [6] [%] | kinase still bound, per cent of control [7] [%] | kinase still bound, per cent of control [8] [%] | kinase still bound, per cent of control [9] [%] | kinase still bound, per cent of control [10] [%] | kinase still bound, per cent of control [11] [%] | kinase still bound, per cent of control [12] [%] | kinase still bound, per cent of control [13] [%] | kinase still bound, per cent of control [14] [%] | kinase still bound, per cent of control [15] [%] | kinase still bound, per cent of control [16] [%] | kinase still bound, per cent of control [17] [%] | kinase still bound, per cent of control [18] [%] | kinase still bound, per cent of control [19] [%] | kinase still bound, per cent of control [20] [%] | other results
O=C(NOC[C@H](O)CO)c1ccc(F)c(F)c1Nc1ccc(I)cc1F | 66 | 54 | 100 | 86 | 100 | 94 | 87 | 87 | 88 | 100 | 100 | 100 | 100 | 100 | 99 | 45 | 95 | 100 | 100 | 90 | kinase still bound, per cent of control [21]: 100%; kinase still bound, per cent of control [22]: 77%; kinase still bound, per cent of control [23]: 67%; kinase still bound, per cent of control [24]: 100%; kinase still bound, per cent of control [25]: 52%; kinase still bound, per cent of control [26]: 86%; kinase still bound, per cent of control [27]: 94%; kinase still bound, per cent of control [28]: 76%; kinase still bound, per cent of control [29]: 66%; kinase still bound, per cent of control [30]: 100%; kinase still bound, per cent of control [31]: 57%; kinase still bound, per cent of control [32]: 100%; kinase still bound, per cent of control [33]: 41%; kinase still bound, per cent of control [34]: 88%; kinase still bound, per cent of control [35]: 91%; kinase still bound, per cent of control [36]: 80%; kinase still bound, per cent of control [37]: 100%
CCCS(=O)(=O)Nc1ccc(F)c(C(=O)c2c[nH]c3ncc(-c4ccc(Cl)cc4)cc23)c1F | 4.3 | 91 | 86 | 48 | 88 | 74 | 52 | 93 | 7.4 | 53 | 11 | 54 | 100 | 88 | 0.95 | 95 | 100 | 4.6 | 59 | 67 | kinase still bound, per cent of control [38]: 100%; kinase still bound, per cent of control [21]: 100%; kinase still bound, per cent of control [22]: 20%; kinase still bound, per cent of control [23]: 80%; kinase still bound, per cent of control [24]: 57%; kinase still bound, per cent of control [39]: 66%; kinase still bound, per cent of control [25]: 100%; kinase still bound, per cent of control [26]: 90%; kinase still bound, per cent of control [27]: 100%; kinase still bound, per cent of control [28]: 100%; kinase still bound, per cent of control [29]: 27%; kinase still bound, per cent of control [30]: 100%; kinase still bound, per cent of control [31]: 88%; kinase still bound, per cent of control [32]: 49%; kinase still bound, per cent of control [33]: 86%; kinase still bound, per cent of control [34]: 77%; kinase still bound, per cent of control [35]: 61%; kinase still bound, per cent of control [36]: 100%; kinase still bound, per cent of control [37]: 84%
Cc1ccc2nc(NCCN)c3ncc(C)n3c2c1 | 100 | 74 | 100 | 90 | 100 | 100 | 88 | 90 | 96 | 16 | 100 | 98 | 88 | 84 | 100 | 31 | 100 | 100 | 90 | 100 | kinase still bound, per cent of control [38]: 79%; kinase still bound, per cent of control [21]: 100%; kinase still bound, per cent of control [22]: 81%; kinase still bound, per cent of control [23]: 100%; kinase still bound, per cent of control [24]: 88%; kinase still bound, per cent of control [39]: 58%; kinase still bound, per cent of control [25]: 100%; kinase still bound, per cent of control [26]: 100%; kinase still bound, per cent of control [27]: 100%; kinase still bound, per cent of control [28]: 100%; kinase still bound, per cent of control [29]: 100%; kinase still bound, per cent of control [30]: 100%; kinase still bound, per cent of control [31]: 26%; kinase still bound, per cent of control [32]: 100%; kinase still bound, per cent of control [33]: 38%; kinase still bound, per cent of control [34]: 81%; kinase still bound, per cent of control [35]: 100%; kinase still bound, per cent of control [36]: 100%; kinase still bound, per cent of control [37]: 100%
